ChEMBL document CHEMBL5465560, “Selectivity Literature for EUbOPEN Chemogenomic Library” (2024)

Legend:
[1] = target: T1, Dual specificity mitogen-activated protein kinase kinase 5 (Homo sapiens) (UniProt Q13163); assay: Selectivity interaction (KinomeScan (DiscoverX)) EUB0000666a MAP2K5; conditions: at 10 µM
T1 sequence (whole entry): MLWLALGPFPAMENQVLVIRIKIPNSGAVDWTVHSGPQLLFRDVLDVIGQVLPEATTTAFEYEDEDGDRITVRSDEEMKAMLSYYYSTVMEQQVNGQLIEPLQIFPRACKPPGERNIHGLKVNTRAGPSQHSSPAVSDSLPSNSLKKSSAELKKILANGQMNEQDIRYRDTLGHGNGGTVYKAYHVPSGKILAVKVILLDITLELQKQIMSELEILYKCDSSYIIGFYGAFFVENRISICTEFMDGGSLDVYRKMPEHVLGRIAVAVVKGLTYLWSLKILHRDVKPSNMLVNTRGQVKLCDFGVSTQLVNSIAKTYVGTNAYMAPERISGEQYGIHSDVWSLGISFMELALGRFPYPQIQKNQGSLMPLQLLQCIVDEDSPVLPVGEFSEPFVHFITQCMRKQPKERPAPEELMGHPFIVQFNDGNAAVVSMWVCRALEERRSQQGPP

[2] = target: Zinc finger CW-type PWWP domain protein 1 (Homo sapiens) (UniProt Q9H0M4); assay: Selectivity interaction (PWWP, WD40, and Tudor domain panel (DSLS measurements, literature)) EUB0000270b ZCWPW1
Zinc finger CW-type PWWP domain protein 1 (Homo sapiens), sequence (Q9H0M4 whole entry, the tested form may be a part): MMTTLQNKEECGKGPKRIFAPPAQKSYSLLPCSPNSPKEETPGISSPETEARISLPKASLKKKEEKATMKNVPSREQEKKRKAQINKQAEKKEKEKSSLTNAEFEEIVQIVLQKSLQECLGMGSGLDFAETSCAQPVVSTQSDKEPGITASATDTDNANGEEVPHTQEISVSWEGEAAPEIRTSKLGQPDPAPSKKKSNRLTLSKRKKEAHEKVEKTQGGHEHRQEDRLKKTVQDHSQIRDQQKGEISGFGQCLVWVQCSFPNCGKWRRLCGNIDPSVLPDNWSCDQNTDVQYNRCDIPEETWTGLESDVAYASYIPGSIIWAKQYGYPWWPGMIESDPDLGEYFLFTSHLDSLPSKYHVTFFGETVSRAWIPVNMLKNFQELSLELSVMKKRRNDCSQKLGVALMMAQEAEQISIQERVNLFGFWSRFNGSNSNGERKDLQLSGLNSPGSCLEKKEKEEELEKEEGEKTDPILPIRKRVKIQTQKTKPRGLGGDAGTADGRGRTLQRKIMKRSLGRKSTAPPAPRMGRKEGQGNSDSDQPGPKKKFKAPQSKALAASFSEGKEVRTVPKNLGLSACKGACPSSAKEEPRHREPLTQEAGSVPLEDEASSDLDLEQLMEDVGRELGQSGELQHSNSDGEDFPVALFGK

[3] = target: T2, Eukaryotic translation initiation factor 2-alpha kinase 3 (Homo sapiens) (UniProt Q9NZJ5); assay: Selectivity interaction (ActivX KiNativ screen (kinase selectivity in THP-1 cell lysates)) EUB0000639a EIF2AK3; assay type: subcellular; conditions: lysate
T2 sequence (whole entry): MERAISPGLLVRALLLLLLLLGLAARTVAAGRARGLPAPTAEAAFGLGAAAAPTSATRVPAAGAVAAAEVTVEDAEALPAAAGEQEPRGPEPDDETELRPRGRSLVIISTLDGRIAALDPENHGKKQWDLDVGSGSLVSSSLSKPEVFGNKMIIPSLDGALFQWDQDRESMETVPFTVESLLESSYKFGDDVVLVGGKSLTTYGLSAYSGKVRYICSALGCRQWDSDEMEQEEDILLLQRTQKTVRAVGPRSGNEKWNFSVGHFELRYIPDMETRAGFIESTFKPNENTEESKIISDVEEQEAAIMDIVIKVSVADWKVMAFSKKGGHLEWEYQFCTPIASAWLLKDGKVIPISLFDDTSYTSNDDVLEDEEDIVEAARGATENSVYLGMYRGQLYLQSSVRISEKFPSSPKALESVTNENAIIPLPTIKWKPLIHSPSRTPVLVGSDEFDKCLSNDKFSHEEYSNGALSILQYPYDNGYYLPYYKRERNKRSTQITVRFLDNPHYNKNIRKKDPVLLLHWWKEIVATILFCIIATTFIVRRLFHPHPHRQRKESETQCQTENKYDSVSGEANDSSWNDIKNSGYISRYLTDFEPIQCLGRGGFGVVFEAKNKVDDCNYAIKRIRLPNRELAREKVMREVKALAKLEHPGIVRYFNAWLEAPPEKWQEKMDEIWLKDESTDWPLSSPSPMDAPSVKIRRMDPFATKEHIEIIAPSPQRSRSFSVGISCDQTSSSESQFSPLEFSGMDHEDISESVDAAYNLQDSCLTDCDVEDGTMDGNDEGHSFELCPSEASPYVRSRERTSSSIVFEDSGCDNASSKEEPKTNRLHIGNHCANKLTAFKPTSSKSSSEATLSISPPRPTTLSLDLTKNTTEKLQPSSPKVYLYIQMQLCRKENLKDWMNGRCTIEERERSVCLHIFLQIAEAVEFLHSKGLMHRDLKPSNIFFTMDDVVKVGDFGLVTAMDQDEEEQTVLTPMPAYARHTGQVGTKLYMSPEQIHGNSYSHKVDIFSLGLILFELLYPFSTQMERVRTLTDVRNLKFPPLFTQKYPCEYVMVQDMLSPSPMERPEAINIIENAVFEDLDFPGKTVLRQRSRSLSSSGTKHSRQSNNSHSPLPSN

[4] = target: Death-associated protein kinase 3 (Homo sapiens) (UniProt O43293); assay: Selectivity interaction (KinomeScan (DiscoverX)) EUB0000092b DAPK3; conditions: at 10 µM
Death-associated protein kinase 3 (Homo sapiens), sequence (O43293 whole entry, looked up): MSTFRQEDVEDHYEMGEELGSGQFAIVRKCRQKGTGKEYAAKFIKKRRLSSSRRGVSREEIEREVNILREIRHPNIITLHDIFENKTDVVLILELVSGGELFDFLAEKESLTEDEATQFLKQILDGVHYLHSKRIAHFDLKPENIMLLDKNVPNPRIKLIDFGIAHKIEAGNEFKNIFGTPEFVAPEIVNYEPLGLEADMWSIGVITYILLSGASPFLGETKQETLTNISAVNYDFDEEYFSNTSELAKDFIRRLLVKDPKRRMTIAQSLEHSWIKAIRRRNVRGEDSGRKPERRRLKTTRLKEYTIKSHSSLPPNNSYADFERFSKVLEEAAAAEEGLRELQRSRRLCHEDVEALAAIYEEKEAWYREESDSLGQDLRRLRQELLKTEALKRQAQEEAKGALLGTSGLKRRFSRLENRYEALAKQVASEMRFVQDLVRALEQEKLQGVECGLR

[5] = target: T3, EKC/KEOPS complex subunit TP53RK (Homo sapiens) (UniProt Q96S44); assay: Selectivity interaction (ActivX KiNativ screen (ex vivo kinase selectivity in human PBMCs)) EUB0001619a TP53RK; assay type: cell-based; conditions: PBMC, at 1 µM
T3 sequence (whole entry): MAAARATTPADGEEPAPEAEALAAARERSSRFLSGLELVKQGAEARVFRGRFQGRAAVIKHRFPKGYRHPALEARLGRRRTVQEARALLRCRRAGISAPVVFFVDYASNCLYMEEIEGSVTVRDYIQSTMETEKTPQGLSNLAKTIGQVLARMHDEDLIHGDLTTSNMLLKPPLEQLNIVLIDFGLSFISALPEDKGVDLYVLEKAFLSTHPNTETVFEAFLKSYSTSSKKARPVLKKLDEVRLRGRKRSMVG

[6] = target: Serine/threonine-protein kinase MRCK alpha (Homo sapiens) (UniProt Q5VT25); assay: Selectivity interaction (Upstate Kinase Profiler service (Millipore)) EUB0000056c CDC42BPA; conditions: at 1 µM
Serine/threonine-protein kinase MRCK alpha (Homo sapiens), sequence (Q5VT25 whole entry): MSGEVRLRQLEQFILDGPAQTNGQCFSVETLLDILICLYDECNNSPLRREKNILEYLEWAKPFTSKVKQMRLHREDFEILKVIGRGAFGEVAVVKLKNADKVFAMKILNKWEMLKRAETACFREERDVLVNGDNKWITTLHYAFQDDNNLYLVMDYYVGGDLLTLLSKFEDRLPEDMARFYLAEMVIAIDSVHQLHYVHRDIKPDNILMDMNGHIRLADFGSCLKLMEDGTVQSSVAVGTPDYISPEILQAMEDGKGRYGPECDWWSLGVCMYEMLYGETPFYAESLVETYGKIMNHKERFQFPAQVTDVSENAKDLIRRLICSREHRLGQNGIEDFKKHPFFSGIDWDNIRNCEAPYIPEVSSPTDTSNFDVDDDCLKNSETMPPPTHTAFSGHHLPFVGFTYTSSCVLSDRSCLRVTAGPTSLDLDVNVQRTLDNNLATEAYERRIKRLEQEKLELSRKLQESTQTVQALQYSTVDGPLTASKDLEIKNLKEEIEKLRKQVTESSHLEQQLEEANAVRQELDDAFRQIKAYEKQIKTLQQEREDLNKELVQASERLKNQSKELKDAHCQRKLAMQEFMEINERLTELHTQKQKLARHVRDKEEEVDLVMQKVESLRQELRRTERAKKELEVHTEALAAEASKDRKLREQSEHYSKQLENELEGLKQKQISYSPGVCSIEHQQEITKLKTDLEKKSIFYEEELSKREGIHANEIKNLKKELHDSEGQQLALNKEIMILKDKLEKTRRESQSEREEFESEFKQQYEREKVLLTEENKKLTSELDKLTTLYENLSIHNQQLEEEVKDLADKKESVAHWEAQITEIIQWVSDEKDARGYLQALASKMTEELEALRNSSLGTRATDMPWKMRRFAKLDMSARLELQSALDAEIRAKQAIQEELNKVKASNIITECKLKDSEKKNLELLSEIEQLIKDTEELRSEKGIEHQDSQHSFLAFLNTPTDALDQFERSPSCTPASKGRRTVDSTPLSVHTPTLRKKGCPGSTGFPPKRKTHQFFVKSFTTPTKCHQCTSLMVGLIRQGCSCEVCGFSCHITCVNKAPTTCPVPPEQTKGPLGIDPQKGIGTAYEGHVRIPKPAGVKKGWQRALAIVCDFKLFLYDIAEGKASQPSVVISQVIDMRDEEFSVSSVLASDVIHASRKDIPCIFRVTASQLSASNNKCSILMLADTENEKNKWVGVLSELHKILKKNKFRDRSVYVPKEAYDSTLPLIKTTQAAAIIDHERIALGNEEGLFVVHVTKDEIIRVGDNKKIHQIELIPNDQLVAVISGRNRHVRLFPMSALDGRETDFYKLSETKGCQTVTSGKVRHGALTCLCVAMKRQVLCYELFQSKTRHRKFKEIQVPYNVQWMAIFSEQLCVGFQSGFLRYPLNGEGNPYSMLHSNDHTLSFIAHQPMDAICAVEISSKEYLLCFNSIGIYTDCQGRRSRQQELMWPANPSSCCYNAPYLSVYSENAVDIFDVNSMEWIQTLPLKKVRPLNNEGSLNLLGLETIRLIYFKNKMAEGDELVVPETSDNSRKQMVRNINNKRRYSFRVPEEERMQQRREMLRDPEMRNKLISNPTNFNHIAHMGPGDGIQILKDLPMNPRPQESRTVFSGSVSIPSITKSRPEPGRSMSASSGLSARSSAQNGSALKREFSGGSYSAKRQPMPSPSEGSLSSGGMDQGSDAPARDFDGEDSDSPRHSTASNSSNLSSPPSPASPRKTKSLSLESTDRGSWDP

Work on `O=C(NOC[C@H](O)CO)c1ccc(F)c(F)c1Nc1ccc(I)cc1F` yielded a % of control [1] of 86%.
With `Cc1cc(CN)cc(C)c1-c1ncn(C)c1-c1cncn1C` the dTagg [2] was 0 K.
With `CC[C@@H]1[C@H](F)C(=O)N[C@@H]1COc1nccc2cc(C(N)=O)c(OC)cc12` [ZIMLOVISERTIB] the % of inhibition ([3]; at 0.01 µM) was 5.1%, the % of inhibition ([3]; at 0.04 µM) was -15.8% and the % of inhibition ([3]; at 0.2 µM) was -12.3%. For the same compound, the % of inhibition ([3]; at 1 µM) was -2.3% and the % of inhibition ([3]; at 5 µM) was -20.8%.
In the case of `CCC(=O)N1CCN(c2ccc(-n3c(=O)ccc4cnc5ccc(-c6cnc7ccccc7c6)cc5c43)cc2C(F)(F)F)CC1`, the % of control [4] is reported as 82%.
Work on `N#Cc1cccc(-c2c[nH]c3ncnc(N4CCOCC4)c23)c1` yielded a % of inhibition [5] of -4%.
`Cc1ccc(-c2ccc3c(ccc4sc5c(c43)NC[C@@H](C)NC5=O)n2)cn1` gave a % of inhibition [6] of -21%.
